Laboratory results as given in patent US7157466B2, “Quinazoline ditosylate salt compounds” (SmithKline Beecham (Cork) Limited, priority 2000, dated 2007).
Read-outs that look alike come from different tables or passages of the source.

What was measured:
[1] = tested on: head and neck (HN5) cell line; assay: Methylene blue growth inhibition assay, HN5; type: cell-based; details: Homo sapiens, read-out: HN5 IC50 uM Cell
Experimental: (§1) Human breast (BT474), head and neck (HN5) and gastric tumor (N87) cell lines and human foreskin Fibroblasts (HFF) were cultured in low glucose DMEM (Life Technologies 12320-032) containing 10% fetal bovine serum (FBS) at 37° C. in a humidified 10% CO2, 90% air incubator. The SV40 transformed human mammary epithelial cell line HB4a was transfected with either human H-ras cDNA (HB4a r4.2) or the human c-erbB2 cDNA (HB4a c5.2). The HB4a clones were cultured in RPMI containing 10% FBS, insulin (5 μg/ml), hydrocortisone (5 μg/ml), supplemented with the selection agent hygromycin B (50 μg/ml). Cells were harvested using trypsin/EDTA, counted using a haemocytometer, and plated in […] of the appropriate media, at the following densities, in a 96-well tissue culture plate (Falcon 3075): BT474 10,000 cells/well, HN5 3,000 cells/well, N87 10,000 cells/well, HB4a c5.2 3,000 cells/well, HB4a r4.2 3,000 cells/well, HFF 2500 cells/well. The next day, compounds were diluted in DMEM containing 100 mg/ml gentamicin, at twice the final required concentration, from 10 mM stock solutions in DMSO. 100 ml/well of these dilutions were added to the 100 ml of media currently on the cell plates. Medium containing 0.6% DMSO was added to control wells. Compounds diluted in DMEM were added to all cell lines, including the HB4a r4.2 and HB4a c5.2 cell lines. The final concentration of DMSO in all wells was 0.3%. Cells were incubated at 37° C., 10% CO2 for 3 days. Medium was removed by aspiration. Cell biomass was estimated by staining cells with 100 μl per well methylene blue (Sigma M9140, 0.5% in 50:50 ethanol:water), and incubation at room temperature for at least 30 minutes. Stain was removed, and the plates rinsed under a gentle stream of water, and air-dried. To release stain from the cells 100 μl of solubilization solution was added (1% N-lauroyl sarcosine, Sodium salt, Sigma L5125, in PBS), and plates were shaken gently for about 30 minutes. Optical density at 620 nm was measured on a microplate reader. Percent inhibition of cell growth was calculated relative to vehicle treated control wells. […]

[2] = tested on: gastric tumor (N87) cell line; assay: Methylene blue growth inhibition assay, N87; type: cell-based; details: Homo sapiens, 72 h, read-out: N87 IC50 uM Cell
Experimental: as §1, with “The next day, compounds were diluted in DMEM containing 100 mg/ml gentamicin, at twice the final required concentration, from 10 mM stock solutions in DMSO. 100 ml/well of these dilutions were added to the 100 ml of media currently on the cell plates.” left out, “Cell biomass was estimated by staining cells with 100 μl per well methylene blue (Sigma M9140, 0.5% in 50:50 ethanol:water), and incubation at room temperature for at least 30 minutes. Stain was removed, and the plates rinsed under a gentle stream of water, and air-dried. To release stain from the cells 100 μl of solubilization solution was added (1% N-lauroyl sarcosine, Sodium salt, Sigma L5125, in PBS), and plates were shaken gently for about 30 minutes.” left out

[3] = Moisture sorption testing; type: physicochemical; details: humidities e.g. 20–75% relative humidity (RH)
Experimental: Approximately 12 mg of N-{3-Chloro-4-[(3-fluorobenzyl) oxy]phenyl}-6-[5-({[2-(methanesulphonyl)ethyl]amino}methyl)-2-furyl]-4-quinazolinamine ditosylate monohydrate salt prepared according to Example 10 was weighed into a sample pan of a moisture sorption apparatus (model number SGA-100, made by VTI). The sample was dried at 60° C. under a nitrogen stream until the weight loss was less than 0.015% in 5 minutes. The relative humidity (RH) was then increased (adsorption) to 5, 15, 25, 35, 45, 55, 65, 75, 85 and 95%—at each step, equilibrium was defined as a weight change of less than 0.015% in 5 minutes. The relative humidity was then decreased (desorption) to 90, 80, 70, 60, 50, 40, 30, and 20% with the same equilibrium condition. The sorption curve (y-axis: Weight—% change vs. x-axis: % RH) is depicted in FIG. 3(a).
Approximately 15 mg of N-{3-Chloro-4-[(3-fluorobenzyl) oxy]phenyl}-6-[5-({[2-(methanesulphonyl)ethyl]amino}methyl)-2-furyl]-4-quinazolinamine di-HCl salt was weighed into a sample pan of a moisture sorption apparatus (model number SGA-100, made by VTI). The sample was dried at 60° C. under a nitrogen stream until the weight loss was less than 0.015% in 5 minutes. The relative humidity was then increased (adsorption) to 5, 15, 25, 35, 45, 55, 65, 75, 85 and 95%—at each step, equilibrium was defined as a weight change of less than 0.015% in 5 minutes. […]

[4] = Slurry equilibration, relative physical stability of anhydrate and monohydrate crystal forms; details: 25° C.; for Equilibrium Form: 1:1 anhydrate/monohydrate slurry in MeOH/H2O
[5] = 72 h, HN5 cells, 3 days, methylene blue

Structure (SMILES): CS(=O)(=O)CCNCc1ccc(-c2ccc3ncnc(Nc4ccc(OCc5cccc(F)c5)c(Cl)c4)c3c2)o1 [Example 8, N-{3-Chloro-4-[(3-fluorobenzyl)oxy]phenyl}-6-[5-({[2-(methanesulphonyl)ethyl]amino}methyl)-2-furyl]-4-quinazolinamine ditosylate anhydrate]
- IC50 ([1]; HN5, 72 h): < 5 µM
- IC50 [2]: < 5 µM

Structure (SMILES): CS(=O)(=O)CCNCc1ccc(-c2ccc3ncnc(Nc4ccc(OCc5cccc(F)c5)c(Cl)c4)c3c2)o1.Cl.Cl [di-HCl salt, N-{3-Chloro-4-[(3-fluorobenzyl)oxy]phenyl}-6-[5-({[2-(methanesulphonyl)ethyl]amino}methyl)-2-furyl]-4-quinazolinamine di-HCl salt]
- Water sorption [3]: sorbs very large amounts of water

Structure (SMILES): CS(=O)(=O)CCNCc1ccc(-c2ccc3ncnc(Nc4ccc(OCc5cccc(F)c5)c(Br)c4)c3c2)o1 [Example 12, (4-(3-Fluoro-benzyloxy)-3-bromophenyl)-(6-(5-((2-methanesulphonyl-ethylamino)-methyl)-furan-2-yl)quinazolin-4-yl)-amine Ditosylate]
- IC50 [1, 5]: < 5 µM

Structure (SMILES): CS(=O)(=O)CCNCc1ccc(-c2ccc3ncnc(Nc4ccc(OCc5cccc(F)c5)c(Cl)c4)c3c2)o1 [N-{3-Chloro-4-[(3-fluorobenzyl)oxy]phenyl}-6-[5-({[2-(methanesulphonyl)ethyl]amino}methyl)-2-furyl]-4-quinazolinamine ditosylate]
- Equilibrium Form ([4]; water volume 0%, RH 0%): Anhydrate
- Equilibrium Form ([4]; water volume 2%, RH 7%): Anhydrate
- Equilibrium Form ([4]; water volume 5%, RH 15%): Monohydrate
- Equilibrium Form ([4]; water volume 10%, RH 26%): Monohydrate
- Equilibrium Form ([4]; water volume 20%, RH 43%): Monohydrate
- Equilibrium Form ([4]; water volume 40%, RH 66%): Monohydrate
- Equilibrium Form ([4]; water volume 60%, RH 80%): Monohydrate
- Equilibrium Form ([4]; water volume 80%, RH 91%): Monohydrate
- Equilibrium Form ([4]; water volume 90%, RH 95%): Monohydrate
- Equilibrium Form ([4]; water volume 100%, RH 100%): Monohydrate

Structure (SMILES): CS(=O)(=O)CCNCc1ccc(-c2ccc3ncnc(Nc4ccc(OCc5cccc(F)c5)c(Cl)c4)c3c2)o1 [Example 10, N-{3-Chloro-4-[(3-fluorobenzyl)oxy]phenyl}-6-[5-({[2-(methanesulphonyl)ethyl]amino}methyl)-2-furyl]-4-quinazolinamine ditosylate monohydrate]
- RH at which the monohydrate becomes the thermodynamically stable form ([4]; slurry equilibration, remains stable up through 100% RH): 7–15 % RH

Structure (SMILES): CS(=O)(=O)CCNCc1nc(-c2ccc3ncnc(Nc4ccc(OCc5cccc(F)c5)c(Cl)c4)c3c2)cs1 [Example 13, (4-(3-Fluoro-benzyloxy)-3-chlorophenyl)-(6-(2-((2-methanesulphonyl-ethylamino)-methyl)-thiazol-4-yl)quinazolin-4-yl)-amine ditosylate]
- IC50 [1, 5]: < 5 µM
